Measurements published in patent US12516056B2, “Compounds for inhibition of janus kinase 1” (MANKIND PHARMA LTD., priority 2019, dated 2026).

Tests used:
[1] = system: STAT5 phosphorylation by GMCSF in TF-1 cells; assay: JAK cellular assay: STAT5 phosphorylation by GMCSF in TF-1 cells (HTRF); assay type: cell-based; settings: Homo sapiens; TF-1 cells, GMCSF 5 ng/ml, pSTAT5 HTRF; read-out: Cell Based Assay (μM) TF-1/GMCSF/pSTAT5
How it was run: (§1)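 Phospho-STAT3 (IL-6, 30 ng/ml) and phospho-STAT5 (GMCSF, 5 ng/ml) read by HTRF in lysates after 20 min cytokine exposure, minus unstimulated-cell background. Cells were serum-starved overnight, plated at 120,000/well, given compound 30 min at 37 °C beforehand; DMSO 0.2% final.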

[2] = system: STAT3 phosphorylation by IL-6 in TF-1 cells; assay: JAK cellular assay: STAT3 phosphorylation by IL-6 in TF-1 cells (HTRF); assay type: cell-based; settings: Homo sapiens, TF-1, TF-1 cells, IL-6 30 ng/ml, pSTAT3 HTRF; read-out: Cell Based Assay (μM) TF-1/IL-6/pSTAT3
How it was run: as §1

Recombinant JAK2 = biological target: T1, Recombinant JAK2 (Homo sapiens, UniProt O60674); assay: JAK biochemical assay (LANCE Ultra TR-FRET), JAK2; settings: recombinant JAK2, TR-FRET; read-out: Biochemical Assay (μM) JAK2
T1 construct: purchased Carna Biosciences
T1 sequence (O60674 whole entry): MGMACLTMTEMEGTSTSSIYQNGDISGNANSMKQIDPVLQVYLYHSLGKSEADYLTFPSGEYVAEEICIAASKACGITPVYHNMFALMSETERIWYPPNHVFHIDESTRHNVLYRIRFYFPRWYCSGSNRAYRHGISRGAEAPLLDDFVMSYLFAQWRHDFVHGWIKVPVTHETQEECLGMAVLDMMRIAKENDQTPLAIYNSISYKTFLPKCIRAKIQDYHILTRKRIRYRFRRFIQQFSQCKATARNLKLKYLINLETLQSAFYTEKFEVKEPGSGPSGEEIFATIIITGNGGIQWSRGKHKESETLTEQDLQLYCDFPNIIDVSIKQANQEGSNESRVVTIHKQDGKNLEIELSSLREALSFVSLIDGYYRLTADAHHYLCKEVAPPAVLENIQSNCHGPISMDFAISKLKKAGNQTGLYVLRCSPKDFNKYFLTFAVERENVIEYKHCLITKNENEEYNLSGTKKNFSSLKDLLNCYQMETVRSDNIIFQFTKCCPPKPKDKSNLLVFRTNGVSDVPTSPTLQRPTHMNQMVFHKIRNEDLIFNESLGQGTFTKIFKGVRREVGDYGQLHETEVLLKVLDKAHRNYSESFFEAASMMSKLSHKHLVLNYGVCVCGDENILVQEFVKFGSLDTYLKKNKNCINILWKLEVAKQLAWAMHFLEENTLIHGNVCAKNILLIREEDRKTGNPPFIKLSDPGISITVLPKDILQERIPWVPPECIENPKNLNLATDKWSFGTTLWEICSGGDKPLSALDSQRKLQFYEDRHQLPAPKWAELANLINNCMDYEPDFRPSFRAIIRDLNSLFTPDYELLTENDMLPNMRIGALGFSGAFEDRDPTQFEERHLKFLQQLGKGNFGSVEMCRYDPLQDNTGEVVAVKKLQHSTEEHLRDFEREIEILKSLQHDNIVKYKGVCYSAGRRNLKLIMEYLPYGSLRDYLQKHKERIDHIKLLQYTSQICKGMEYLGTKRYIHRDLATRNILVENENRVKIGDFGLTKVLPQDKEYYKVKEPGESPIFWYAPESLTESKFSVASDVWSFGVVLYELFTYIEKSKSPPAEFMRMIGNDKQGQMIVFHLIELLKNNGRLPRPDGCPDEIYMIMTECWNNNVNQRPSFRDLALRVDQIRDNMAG
How it was run: (§2)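 Kinase reactions ran in buffer of 50 mM HEPES pH 7.5 with 1 mM EGTA, 10 mM MgCl2, 2 mM DTT and 0.01% Tween-20, using recombinant enzyme. Phosphorylated ULight substrate was detected by TR-FRET, and compound effect expressed as % inhibition against vehicle.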

Recombinant TYK2 = biological target: T2, Recombinant TYK2 (Homo sapiens, UniProt P29597); assay: JAK biochemical assay (LANCE Ultra TR-FRET), TYK2; settings: recombinant TYK2, TR-FRET; read-out: Biochemical Assay (μM) TYK2
T2 construct: purchased Carna Biosciences
T2 sequence (P29597 whole entry): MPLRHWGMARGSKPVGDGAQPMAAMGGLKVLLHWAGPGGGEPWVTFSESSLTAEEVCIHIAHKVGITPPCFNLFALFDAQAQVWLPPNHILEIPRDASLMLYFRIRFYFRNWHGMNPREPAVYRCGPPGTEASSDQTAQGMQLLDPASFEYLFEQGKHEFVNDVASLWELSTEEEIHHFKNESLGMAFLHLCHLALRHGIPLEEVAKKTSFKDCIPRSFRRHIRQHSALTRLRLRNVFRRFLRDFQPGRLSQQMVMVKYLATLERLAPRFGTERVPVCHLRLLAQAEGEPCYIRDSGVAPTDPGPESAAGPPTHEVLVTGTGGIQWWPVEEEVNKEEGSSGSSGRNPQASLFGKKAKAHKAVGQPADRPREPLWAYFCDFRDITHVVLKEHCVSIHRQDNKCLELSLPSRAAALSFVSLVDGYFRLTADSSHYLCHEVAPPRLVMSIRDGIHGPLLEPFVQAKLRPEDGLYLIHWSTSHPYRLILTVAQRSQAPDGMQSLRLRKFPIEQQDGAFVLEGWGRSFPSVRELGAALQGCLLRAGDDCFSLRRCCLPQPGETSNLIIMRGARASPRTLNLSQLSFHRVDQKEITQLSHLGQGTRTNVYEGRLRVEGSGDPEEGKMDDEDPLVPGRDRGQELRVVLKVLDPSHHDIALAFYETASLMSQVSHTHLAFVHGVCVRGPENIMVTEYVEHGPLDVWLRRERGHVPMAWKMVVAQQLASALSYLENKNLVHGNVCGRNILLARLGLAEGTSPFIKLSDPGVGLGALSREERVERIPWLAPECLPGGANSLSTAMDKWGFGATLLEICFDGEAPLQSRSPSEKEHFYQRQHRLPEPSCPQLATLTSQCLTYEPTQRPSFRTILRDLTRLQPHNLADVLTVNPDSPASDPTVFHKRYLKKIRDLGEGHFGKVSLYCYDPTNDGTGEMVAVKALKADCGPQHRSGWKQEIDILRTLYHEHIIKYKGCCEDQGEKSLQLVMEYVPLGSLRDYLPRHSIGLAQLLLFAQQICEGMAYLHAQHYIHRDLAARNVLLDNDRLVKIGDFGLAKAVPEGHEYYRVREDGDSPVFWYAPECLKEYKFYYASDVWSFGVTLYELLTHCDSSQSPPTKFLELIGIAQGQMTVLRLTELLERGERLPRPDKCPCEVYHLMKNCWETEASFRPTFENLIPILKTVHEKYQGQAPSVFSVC
How it was run: as §2

Recombinant JAK1 = biological target: T3, Recombinant JAK1 (Homo sapiens, UniProt P23458); assay: JAK biochemical assay (LANCE Ultra TR-FRET), JAK1; settings: recombinant JAK1, TR-FRET; read-out: Biochemical Assay (μM) JAK1
T3 construct: purchased Carna Biosciences
T3 sequence (P23458 whole entry): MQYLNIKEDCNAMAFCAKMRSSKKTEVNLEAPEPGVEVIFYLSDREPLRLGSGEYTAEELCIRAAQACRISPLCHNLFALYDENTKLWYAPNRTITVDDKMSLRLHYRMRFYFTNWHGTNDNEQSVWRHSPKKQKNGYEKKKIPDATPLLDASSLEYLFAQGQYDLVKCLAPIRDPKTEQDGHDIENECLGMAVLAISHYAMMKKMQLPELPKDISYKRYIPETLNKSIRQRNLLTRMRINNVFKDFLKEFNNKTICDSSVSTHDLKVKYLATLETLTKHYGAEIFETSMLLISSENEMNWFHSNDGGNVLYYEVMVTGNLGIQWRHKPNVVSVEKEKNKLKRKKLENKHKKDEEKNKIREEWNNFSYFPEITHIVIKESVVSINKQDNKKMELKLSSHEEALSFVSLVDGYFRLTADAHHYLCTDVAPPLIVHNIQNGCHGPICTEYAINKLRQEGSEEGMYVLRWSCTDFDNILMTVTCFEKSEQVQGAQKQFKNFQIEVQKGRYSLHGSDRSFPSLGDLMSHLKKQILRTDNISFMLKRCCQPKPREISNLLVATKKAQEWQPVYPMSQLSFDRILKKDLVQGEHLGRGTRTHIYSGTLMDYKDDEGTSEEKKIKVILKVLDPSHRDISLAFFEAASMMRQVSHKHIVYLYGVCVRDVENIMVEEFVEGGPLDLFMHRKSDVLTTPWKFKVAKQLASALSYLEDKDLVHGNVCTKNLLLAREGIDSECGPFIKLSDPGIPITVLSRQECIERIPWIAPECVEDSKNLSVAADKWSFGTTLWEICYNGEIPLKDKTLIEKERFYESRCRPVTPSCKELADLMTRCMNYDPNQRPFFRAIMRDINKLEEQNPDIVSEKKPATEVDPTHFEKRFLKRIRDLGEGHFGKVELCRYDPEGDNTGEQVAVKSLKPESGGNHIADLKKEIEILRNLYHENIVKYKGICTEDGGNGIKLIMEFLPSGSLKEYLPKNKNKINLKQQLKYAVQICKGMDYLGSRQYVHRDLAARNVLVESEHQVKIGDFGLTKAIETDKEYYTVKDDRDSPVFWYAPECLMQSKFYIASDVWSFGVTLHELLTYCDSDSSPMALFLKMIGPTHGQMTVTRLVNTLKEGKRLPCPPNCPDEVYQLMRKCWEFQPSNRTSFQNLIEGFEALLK
How it was run: as §2

Recombinant JAK3 = biological target: T4, Recombinant JAK3 (Homo sapiens, UniProt P52333); assay: JAK biochemical assay (LANCE Ultra TR-FRET), JAK3; settings: recombinant JAK3, TR-FRET; read-out: Biochemical Assay (μM) JAK3
T4 construct: purchased Carna Biosciences
T4 sequence (P52333 1-1124): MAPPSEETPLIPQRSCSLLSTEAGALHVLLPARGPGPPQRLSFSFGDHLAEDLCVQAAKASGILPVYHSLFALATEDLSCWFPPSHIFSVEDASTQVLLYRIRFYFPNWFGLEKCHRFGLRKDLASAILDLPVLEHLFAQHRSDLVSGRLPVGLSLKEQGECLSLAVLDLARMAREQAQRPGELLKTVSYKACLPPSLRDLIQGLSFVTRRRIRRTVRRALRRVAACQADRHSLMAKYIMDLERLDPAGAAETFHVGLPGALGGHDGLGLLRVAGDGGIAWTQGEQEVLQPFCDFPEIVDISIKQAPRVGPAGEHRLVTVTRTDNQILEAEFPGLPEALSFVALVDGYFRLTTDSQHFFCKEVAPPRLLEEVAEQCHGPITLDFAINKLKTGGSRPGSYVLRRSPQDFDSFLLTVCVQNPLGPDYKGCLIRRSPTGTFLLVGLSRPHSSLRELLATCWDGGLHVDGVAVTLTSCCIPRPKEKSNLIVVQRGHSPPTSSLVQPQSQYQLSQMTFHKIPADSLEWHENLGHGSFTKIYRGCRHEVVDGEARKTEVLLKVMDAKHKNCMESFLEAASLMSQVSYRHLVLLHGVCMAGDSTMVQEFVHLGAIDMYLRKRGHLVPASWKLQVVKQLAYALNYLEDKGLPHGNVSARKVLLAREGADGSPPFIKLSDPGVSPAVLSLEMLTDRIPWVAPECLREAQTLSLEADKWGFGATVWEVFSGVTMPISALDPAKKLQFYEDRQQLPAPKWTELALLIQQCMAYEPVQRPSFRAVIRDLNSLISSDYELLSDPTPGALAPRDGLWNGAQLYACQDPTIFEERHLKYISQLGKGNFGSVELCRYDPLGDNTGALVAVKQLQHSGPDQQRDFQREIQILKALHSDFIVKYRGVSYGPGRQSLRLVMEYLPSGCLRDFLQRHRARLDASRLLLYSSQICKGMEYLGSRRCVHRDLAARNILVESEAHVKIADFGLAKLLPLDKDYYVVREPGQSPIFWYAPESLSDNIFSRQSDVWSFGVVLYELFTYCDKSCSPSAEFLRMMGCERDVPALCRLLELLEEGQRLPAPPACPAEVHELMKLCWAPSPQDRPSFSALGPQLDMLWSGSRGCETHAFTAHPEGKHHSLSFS
How it was run: as §2

IC50 [1] [µM] | IC50 [2] [µM] | IC50 (Recombinant JAK2) [µM] | IC50 (Recombinant TYK2) [µM] | IC50 (Recombinant JAK1) [µM] | IC50 (Recombinant JAK3) [µM] | SMILES
> 10 | > 10 | > 1 | > 10 | > 1 | > 1 | c1cc(-c2cnn(Cc3cnco3)c2)c2nc[nH]c2n1 [Example 1077, 7-(1-((oxazol-5-yl)methyl)-1H-pyrazol-4-yl)-3H-imidazo[4,5-b]pyridine]
> 10 | > 1 | < 0.5 | > 10 | 0.068 | < 0.5 | CS(=O)(=O)Cc1ccc(-n2cc(-c3ccnc4[nH]cnc34)cn2)nc1 [Example 1080, 7-(1-(5-((methylsulfonyl)methyl)pyridin-2-yl)-1H-pyrazol-4-yl)-3H-imidazo[4,5-b]pyridine]
> 10 | > 1 | > 0.5 | > 10 | < 0.5 | < 0.5 | c1cc(-c2cnn(-c3ccc(CC4COC4)cn3)c2)c2nc[nH]c2n1 [Example 1081, 7-(1-(5-((oxetan-3-yl)methyl)pyridin-2-yl)-1H-pyrazol-4-yl)-3H-imidazo[4,5-b]pyridine]
> 10 | > 10 | > 0.5 | > 10 | < 0.5 | > 0.5 | O=S1(=O)CCN(Cc2ccc(-n3cc(-c4ccnc5[nH]cnc45)cn3)nc2)CC1 [Example 1086, 4-((6-(4-(3H-imidazo[4,5-b]pyridin-7-yl)-1H-pyrazol-1-yl)pyridin-3-yl)methyl)thiomorpholine 1,1-dioxide]
> 1 | > 1 | < 0.5 | < 0.5 | < 0.5 | < 0.5 | O=C(NCC(F)(F)F)n1cc(-c2ccnc3[nH]c(-c4ccccc4)nc23)cn1 [Example 1094, N-(2,2,2-trifluoroethyl)-4-(2-phenyl-3H-imidazo[4,5-b]pyridin-7-yl)-1H-pyrazole-1-carboxamide]
> 10 | > 1 | < 0.5 | > 1 | < 0.5 | < 0.5 | N#CCc1ccc(-n2cc(-c3ccnc4[nH]cnc34)cn2)cc1 [Example 1099, 2-(4-(4-(3H-imidazo[4,5-b]pyridin-7-yl)-1H-pyrazol-1-yl)phenyl)acetonitrile]
> 10 | > 10 | > 0.5 | > 10 | > 0.5 | > 0.5 | N#CC(c1ccc(-n2cc(-c3ccnc4[nH]cnc34)cn2)cc1)C1CC1 (stereo not drawn) [Example 1100, 2-(4-(4-(3H-imidazo[4,5-b]pyridin-7-yl)-1H-pyrazol-1-yl)phenyl)-2-cyclopropylacetonitrile]
> 10 | > 10 | > 0.5 | > 10 | > 0.5 | > 1 | N#CC(c1ccc(-n2cc(-c3ccnc4[nH]cnc34)cn2)cc1)N1CCOCC1 (stereo not drawn) [Example 1101, 2-(4-(4-(3H-imidazo[4,5-b]pyridin-7-yl)-1H-pyrazol-1-yl)phenyl)-2-morpholinoacetonitrile]
> 10 | > 10 | > 0.5 | > 1 | < 0.5 | > 0.5 | N#CCC(=O)Nc1ccc(-n2cc(-c3ccnc4[nH]cnc34)cn2)cc1 [Example 1102, N-(4-(4-(3H-imidazo[4,5-b]pyridin-7-yl)-1H-pyrazol-1-yl)phenyl)-2-cyanoacetamide]
> 10 | > 1 | > 0.5 | > 10 | > 0.5 | > 10 | N#CCc1ccc(-n2cc(-c3ccnc4[nH]cnc34)cn2)c(F)c1 [Example 1103, 2-(4-(4-(3H-imidazo[4,5-b]pyridin-7-yl)-1H-pyrazol-1-yl)-3-fluorophenyl)acetonitrile]
> 10 | > 1 | < 0.5 | > 1 | < 0.5 | < 0.5 | N#CCc1cccc(-n2cc(-c3ccnc4[nH]cnc34)cn2)c1 [Example 1106, 2-(3-(4-(3H-imidazo[4,5-b]pyridin-7-yl)-1H-pyrazol-1-yl)phenyl)acetonitrile]
> 10 | > 1 | > 0.1 | > 1 | < 0.1 | < 0.1 | CC(C#N)c1ccc(-n2cc(-c3ccnc4[nH]cnc34)cn2)nc1 (stereo not drawn) [Example 1107, 2-(6-(4-(3H-imidazo[4,5-b]pyridin-7-yl)-1H-pyrazol-1-yl)pyridin-3-yl)propanenitrile]
> 10 | > 10 | > 0.5 | > 1 | > 0.1 | > 0.1 | CC(C(N)=O)c1ccc(-n2cc(-c3ccnc4[nH]cnc34)cn2)nc1 (stereo not drawn) [Example 1108, 2-(6-(4-(3H-imidazo[4,5-b]pyridin-7-yl)-1H-pyrazol-1-yl)pyridin-3-yl)propanamide]
> 10 | > 1 | < 0.5 | > 10 | < 0.5 | < 0.5 | N#CC1(c2ccc(-n3cc(-c4ccnc5[nH]cnc45)cn3)nc2)CC1 [Example 1109, 1-(6-(4-(3H-imidazo[4,5-b]pyridin-7-yl)-1H-pyrazol-1-yl)pyridin-3-yl)cyclopropanecarbonitrile]
> 10 | > 10 | > 0.5 | > 10 | < 0.5 | < 0.5 | N#CC(c1ccc(-n2cc(-c3ccnc4[nH]cnc34)cn2)nc1)N1CC(F)(F)C1 (stereo not drawn) [Example 1111, 2-(6-(4-(3H-imidazo[4,5-b]pyridin-7-yl)-1H-pyrazol-1-yl)pyridin-3-yl)-2-(3,3-difluoroazetidin-1-yl)acetonitrile]
> 10 | > 10 | > 0.1 | > 1 | > 1 | > 0.5 | N#CC(c1ccc(-n2cc(-c3ccnc4[nH]cnc34)cn2)nc1)N1CCS(=O)(=O)CC1 (stereo not drawn) [Example 1113, 2-(6-(4-(3H-imidazo[4,5-b]pyridin-7-yl)-1H-pyrazol-1-yl)pyridin-3-yl)-2-(1,1-dioxidothiomorpholino)acetonitrile]
> 10 | > 1 | > 0.5 | > 1 | > 0.1 | > 0.1 | CS(=O)(=O)CCC(C#N)c1ccc(-n2cc(-c3ccnc4[nH]cnc34)cn2)nc1 (stereo not drawn) [Example 1116, 2-(6-(4-(3H-imidazo[4,5-b]pyridin-7-yl)-1H-pyrazol-1-yl)pyridin-3-yl)-4-(methylsulfonyl) butanenitrile]
> 10 | > 10 | > 0.5 | > 1 | > 0.5 | > 0.5 | N#CCc1ccnc(-n2cc(-c3ccnc4[nH]cnc34)cn2)c1 [Example 1118, 2-(2-(4-(3H-imidazo[4,5-b]pyridin-7-yl)-1H-pyrazol-1-yl)pyridin-4-yl)acetonitrile]
> 10 | > 1 | > 0.1 | > 1 | > 0.05 | > 0.1 | FC(F)(F)C(Cl)c1ccc(-n2cc(-c3ccnc4[nH]cnc34)cn2)nc1 (stereo not drawn) [Example 1120, 7-(1-(5-(1-chloro-2,2,2-trifluoroethyl)pyridin-2-yl)-1H-pyrazol-4-yl)-3H-imidazo[4,5-b]pyridine]
